Patent publication US11000033B2, “Ketone or oxime compound, and herbicide” (NISSAN CHEMICAL CORPORATION, priority 2014, dated 2021)

Experiments:
Assay type in all cases: in vivo
[1] = test system: Echinochloa oryzacola Vasing.; assay: Test Example 1: herbicidal activity, application before weed generation in submerged conditions (symbol A); settings: application herbicide amount 320 g/ha
Procedure, shortened: (§1)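 Greenhouse growth at 25–30 °C lasted 3 weeks after treatment, when each weed was graded 0–5 by herbicidal ratio. Treatment was a diluted emulsion applied to the water surface of 4 cm-submerged alluvial soil on the sowing day.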

Scirpus juncoides = assay: Test Example 1: herbicidal activity, application before weed generation in submerged conditions (symbol B); settings: application herbicide amount 320 g/ha
Procedure, shortened: as §1

[2] = test system: Echinochloa crus-galli var. crus-galli; assay: Test Example 3: herbicidal effect by foliage application, Wagner pot (symbol H); settings: application herbicide amount 320 g/ha
Procedure, shortened: (§2)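 Scoring took place 3 weeks after application, using fixed criteria. Plants had been raised from seed for 14 days at 25 to 30 °C in submerged alluvial soil before a diluted emulsion of the test compound was sprayed uniformly on the leaves.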

Cyperus difformis = assay: Test Example 3: herbicidal effect by foliage application, Wagner pot (symbol E); settings: application herbicide amount 320 g/ha
Procedure, shortened: as §2

Setaria viridis = assay: Test Example 4: herbicidal effect by soil treatment (symbol G); settings: application herbicide amount 320 g/ha
Procedure, shortened: (§3)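 Seeds were sown in sterilized diluvial soil, covered with about 1.5 cm of soil, and the soil surface was sprayed with a water-diluted emulsion of the compound at a predetermined rate. Plants grew in a greenhouse at 25° C. to 30° C.; effects were scored visually 3 weeks after application.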

Alopecurus myosuroides [3] = assay: Test Example 4: herbicidal effect by soil treatment (symbol J); settings: application herbicide amount 320 g/ha
Procedure, shortened: as §3

Apera spica-venti [4] = assay: Test Example 4: herbicidal effect by soil treatment (symbol L); settings: application herbicide amount 320 g/ha
Procedure, shortened: as §3

Galium spurium [5] = assay: Test Example 4: herbicidal effect by soil treatment (symbol Q); settings: application herbicide amount 320 g/ha
Procedure, shortened: as §3

wheat = assay: Test Example 4: effect on crop by soil treatment (symbol e); settings: application herbicide amount 320 g/ha
Procedure, shortened: (§4)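 Sterilized diluvial soil, spot sowing, ~1.5 cm soil cover; greenhouse 25–30° C.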

rapeseed [6] = assay: Test Example 4: effect on crop by soil treatment (symbol g); settings: application herbicide amount 320 g/ha
Procedure, shortened: as §4

Digitaria ciliaris = assay: Test Example 5: herbicidal effect by foliage application, plastic box (symbol F); settings: 320 g/ha, 3 weeks after application
Procedure, shortened: (§5)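 Greenhouse foliar test: seedlings at 14 days, grown 25° C. to 30° C. in sterilized diluvial soil; compound applied as an aqueous dilution of an emulsion; response read 3 weeks after spraying.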

Alopecurus myosuroides [7] = assay: Test Example 5: herbicidal effect by foliage application, plastic box (symbol J); settings: 320 g/ha, 3 weeks after application
Procedure, shortened: as §5

Apera spica-venti [8] = assay: Test Example 5: herbicidal effect by foliage application, plastic box (symbol L); settings: 320 g/ha, 3 weeks after application
Procedure, shortened: as §5

Abutilon theophrasti = assay: Test Example 5: herbicidal effect by foliage application, plastic box (symbol M); settings: 320 g/ha, 3 weeks after application
Procedure, shortened: as §5

Amaranthus retroflexus = assay: Test Example 5: herbicidal effect by foliage application, plastic box (symbol N); settings: 320 g/ha, 3 weeks after application
Procedure, shortened: as §5

Stellaria media = assay: Test Example 5: herbicidal effect by foliage application, plastic box (symbol P); settings: 320 g/ha, 3 weeks after application
Procedure, shortened: as §5

Galium spurium [9] = assay: Test Example 5: herbicidal effect by foliage application, plastic box (symbol Q); settings: 320 g/ha, 3 weeks after application
Procedure, shortened: as §5

beet = assay: Test Example 5: effect on crop by foliage application, plastic box (symbol f); settings: 320 g/ha, 3 weeks after application
Procedure, shortened: (§6)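 Greenhouse culture at 25° C. to 30° C. followed spot-like sowing into sterilized diluvial soil, with seed covered by roughly 1.5 cm of soil.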

rapeseed [10] = assay: Test Example 5: effect on crop by foliage application, plastic box (symbol g); settings: 320 g/ha, 3 weeks after application
Procedure, shortened: as §6

SMILES: CON=C(C)CC1CC(O)=C(c2c(C)cc(-c3ccccc3)cc2OC)C1=O (stereo not shown) [6-099]
- Herbicidal effect grade, A: Echinochloa oryzacola Vasing. [1]: 5 (Herbicidal ratio of 90% or more (almost completely withered))
- Herbicidal effect grade, B: Scirpus juncoides (Scirpus juncoides): 5 (Herbicidal ratio of 90% or more (almost completely withered))
- herbicidal effect on H (Echinochloa crus-galli var. crus-galli), grade 0-5 [2]: 5 (Herbicidal ratio of 90% or more (almost completely withered))
- herbicidal effect on E, grade 0-5 (Cyperus difformis): 5 (Herbicidal ratio of 90% or more (almost completely withered))
- Herbicidal effect grade, G: Setaria viridis (Setaria viridis): 5 (Herbicidal ratio of 90% or more (almost completely withered))
- Herbicidal effect grade, J: Alopecurus myosuroides (Alopecurus myosuroides [3]): 5 (Herbicidal ratio of 90% or more (almost completely withered))
- Herbicidal effect grade, L: Apera spica-venti (Apera spica-venti [4]): 5 (Herbicidal ratio of 90% or more (almost completely withered))
- Herbicidal effect grade, Q: Galium spurium (Galium spurium [5]): 3 (Herbicidal ratio of 40% or higher and lower than 70%)
- Effect on crop grade, e: wheat (wheat): 5 (Herbicidal ratio of 90% or more (almost completely withered))
- Effect on crop grade, g: rapeseed (rapeseed [6]): 5 (Herbicidal ratio of 90% or more (almost completely withered))
- F: Digitaria ciliaris, herbicidal effect (criteria of Test Example 1) (Digitaria ciliaris): 5 (Herbicidal ratio of 90% or more (almost completely withered))
- J: Alopecurus myosuroides, herbicidal effect (criteria of Test Example 1) (Alopecurus myosuroides [7]): 5 (Herbicidal ratio of 90% or more (almost completely withered))
- L: Apera spica-venti, herbicidal effect (criteria of Test Example 1) (Apera spica-venti [8]): 5 (Herbicidal ratio of 90% or more (almost completely withered))
- M: Abutilon theophrasti, herbicidal effect (criteria of Test Example 1) (Abutilon theophrasti): 3 (Herbicidal ratio of 40% or higher and lower than 70%)
- N: Amaranthus retroflexus, herbicidal effect (criteria of Test Example 1) (Amaranthus retroflexus): 4 (Herbicidal ratio of 70% or higher and lower than 90%)
- P: Stellaria media, herbicidal effect (criteria of Test Example 1) (Stellaria media): 4 (Herbicidal ratio of 70% or higher and lower than 90%)
- Q: Galium spurium, herbicidal effect (criteria of Test Example 1) (Galium spurium [9]): 5 (Herbicidal ratio of 90% or more (almost completely withered))
- f: beet, effect on crop (criteria of Test Example 1) (beet): 4 (Herbicidal ratio of 70% or higher and lower than 90%)
- g: rapeseed, effect on crop (criteria of Test Example 1) (rapeseed [10]): 5 (Herbicidal ratio of 90% or more (almost completely withered))
